The numbers were not newly measured in patent US20060217894A1, “Use of computationally derived protein structures of genetic polymorphisms in pharmacogenomics for drug design and clinical applications” (priority 1999, published 2006), which cites them from elsewhere.

In this data set the target is NS3 protease (Hepatitis C virus genotype 1b, UniProt P26663). The settings on record: values obtained from literature (Ingallinella et al. 1998).
Chain of NS3 protease (P26663 1027-1657, other chains not shown): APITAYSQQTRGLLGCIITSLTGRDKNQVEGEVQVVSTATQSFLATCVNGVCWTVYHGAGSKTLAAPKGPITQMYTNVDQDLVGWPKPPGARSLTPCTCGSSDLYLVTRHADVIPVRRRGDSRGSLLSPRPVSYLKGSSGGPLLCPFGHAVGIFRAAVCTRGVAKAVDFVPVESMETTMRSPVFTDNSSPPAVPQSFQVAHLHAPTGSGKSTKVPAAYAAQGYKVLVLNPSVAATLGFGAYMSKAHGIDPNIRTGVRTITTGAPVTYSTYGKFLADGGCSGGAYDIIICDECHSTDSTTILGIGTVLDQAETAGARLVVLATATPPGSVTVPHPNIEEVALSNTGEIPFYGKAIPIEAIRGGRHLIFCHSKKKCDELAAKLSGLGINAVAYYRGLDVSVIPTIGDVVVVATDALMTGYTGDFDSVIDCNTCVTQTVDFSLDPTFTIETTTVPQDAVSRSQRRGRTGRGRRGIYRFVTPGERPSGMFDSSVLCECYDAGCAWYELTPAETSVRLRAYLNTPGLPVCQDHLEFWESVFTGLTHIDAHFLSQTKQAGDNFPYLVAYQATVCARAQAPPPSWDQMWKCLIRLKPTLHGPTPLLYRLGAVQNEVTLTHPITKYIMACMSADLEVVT

With “Ac-Asp^1-D-Glu^2-Leu^3-Ile^4-Cha^5-Cys^6-COO-”, the IC50 was 15 nM. In the case of “Ac-Asp^1-L-Glu^2-Leu^3-Ile^4-Cha^5-Cys^6-COO-”, the IC50 is 60 nM.

One may read the IC50 as the concentration that gives 50% inhibition.
